Source: patent US20100292081A1, “Herbicidal Control Using Sulfentrazone and Dithiopyr” (FMC Corporation, priority 2009, published 2010)

Legend:
Assay type in all cases: in vivo
[1] = system: large crabgrass (Digitaria sanguinalis); assay: Pre-emergent herbicidal evaluation on turf plots (Example 1), large crabgrass
Text: (§1) The presence of a synergistic effect between the two active ingredients is established with the aid of the Colby equation (see Colby, S. R., “Calculating Synergistic and Antagonistic Responses of Herbicide Combinations”, Weeds 1967, 15, pg 20-22): E=X+Y−(XY/100).
(§2) Using the method of Colby, the presence of a synergistic interaction between two active ingredients is established by first calculating the expected activity, ‘E’, of the mixture based on activities of the two components applied alone. In the equation above, ‘X’ is the herbicidal activity in percentage control of sulfentrazone applied alone at rate ‘x’. The ‘Y’ term is the herbicidal activity of dithiopyr applied alone at rate ‘y’. The equation calculates ‘E’, the herbicidal activity of the mixture of ‘X’ at rate ‘x’ with ‘Y’ at rate ‘y’. If ‘E’ is lower than the observed activity, synergy is present. If the herbicidal effects are strictly additive, and no interaction has occurred, ‘E’ will be equal to or higher than the observed activity.
(§3) Test compositions containing sulfentrazone (Dismiss™ Turf Herbicide), dithiopyr (DIMENSION® Ultra 40WP Specialty Herbicide) and mixtures thereof, were diluted with water to provide the appropriate test rate concentrations.
(§4) The size of each experimental turf plot was 4 feet by 4 feet, treating the inner 10 ft^2 per plot. The application of each test composition was performed with a pressurized back-pack sprayer, calibrated to spray between 10 and 15 gallons per acre. Four replications were made for each test rate along an untreated control plot.
In order t to provide a measure of the effectiveness of a herbicide's performance weed control ratings were based on visual observations of the presence or absence of various weeds or of symptoms (necrosis, wilting, curling of leaves, discoloration etc.) on weeds compared to lack of symptoms. Ratings are based on the 0 to 100 rating system, where 0 equals no control and 100 equals complete control, which generally makes use of direct-percentage figures. In this system the standard basis for comparison is an untreated weedy check. […]

[2] = system: parsley piert (Alchenilla arvensis); assay: Pre-emergent herbicidal evaluation on turf plots (Example 1), parsley piert
Text: as §1, §2, §3, §4
(§5) Control of large crabgrass (Digitaria sanguinalis), parsley piert (Alchenilla arvensis), common chickweed (Stellaria media) and shiny cudweed (Gnaphalium spicatum) was evaluated at 23 days after treatment (DAT) for each test rate. In order t to provide a measure of the effectiveness of a herbicide's performance weed control ratings were based on visual observations of the presence or absence of various weeds or of symptoms (necrosis, wilting, curling of leaves, discoloration etc.) on weeds compared to lack of symptoms. […]

[3] = system: common chickweed (Stellaria media); assay: Pre-emergent herbicidal evaluation on turf plots (Example 1), common chickweed
Text: as §1, §2, §3, §4, §5

[4] = system: shiny cudweed (Gnaphalium spicatum); assay: Pre-emergent herbicidal evaluation on turf plots (Example 1), shiny cudweed
Text: as §1, §2, §3, §4, §5

[5] = system: broadleaf weeds (medic, buckhorn plantain, clover, red sorrel, dandelion); assay: Post-emergent herbicidal evaluation on turf plots (Example 2), broadleaf weeds in total; conditions: 45 DAT, NIS 0.25% V/V
Text: as §1, §2
(§6) Control of large crabgrass (Digitaria sanguinalis), parsley piert (Alchenilla arvensis), common chickweed (Stellaria media) and shiny cudweed (Gnaphalium spicatum) was evaluated at 23 days after treatment (DAT) for each test rate. In order t to provide a measure of the effectiveness of a herbicide's performance weed control ratings were based on visual observations of the presence or absence of various weeds or of symptoms (necrosis, wilting, curling of leaves, discoloration etc.) on weeds compared to lack of symptoms. Ratings are based on the 0 to 100 rating system, where 0 equals no control and 100 equals complete control, which generally makes use of direct-percentage figures. In this system the standard basis for comparison is an untreated weedy check. Counts are made of each weed species found in the untreated area of the study. This provides a basis to give a precise representation of both weed infestation and degree of control provided by various chemical treatments. Counts are made on randomly selected areas which are generally 1 square foot to 1 square yard in size. Ratings are made for each weed species found in the untreated treatments. For example, a random area in an untreated plot has 10 yellow nutsedge plants per square foot equaling 0% control. A treated plot has only 1 yellow nutsedge plant found in the randomly selected area equaling 90% control.
Test compositions containing sulfentrazone (Dismiss™ Turf Herbicide), dithiopyr (DIMENSION® Ultra 40WP Specialty Herbicide) and mixtures thereof, were diluted with water to provide the appropriate test rate concentrations. A non-ionic surfactant (NIS) was added to each test solution, 0.25% V/V.
as §4, with “plot. The post-emergence application of” for “plot. The application of”
Control of broadleaf weeds was evaluated at 45 days after treatment (DAT) for each test rate. The broadleaf weeds included medic (Medicago sp.), buckhorn plantain (Plantago lanceolata), clover (Trifolium sp.), red sorrel (Rumex acetosella) and dandelion (Traxacum afficinale). Percent control of the broadleaf weeds was reported as a total number of broadleaf weeds controlled, not as individual species. The evaluation results were compared with results observed in untreated control plots in the same trials as described in Example 1 to determine % control and are summarized in Table 2 below. There was no damage to the turf grass at any rate tested. The Colby equation expected values are also in Table 2.

[6] = system: crabgrass (Digitaria sp.); assay: Pre-emergence control of crabgrass on turf plots (Example 3)
Text: as §1, §2, §6, §3, §4
(§7) Pre-emergence control of crabgrass (Digitaria sp.) was evaluated 180 days after treatment (DAT). Post-emergence control of curly dock (Rumex crispus) and shiny cudweed (Gnaphalium spicatum) parsley were evaluated at 65 days after treatment for each test rate. The evaluation results were compared with results observed in untreated control plots in the same trials as described in Example 1 to determine % control and are summarized in Table 3 below. There was no damage to the turf grass at any rate tested. The Colby equation expected values are also in Table 3.

[7] = system: curly dock (Rumex crispus); assay: Post-emergence control of curly dock on turf plots (Example 3)
Text: as §1, §2, §6, §3, §4, §7

[8] = system: shiny cudweed (Gnaphalium spicatum); assay: Post-emergence control of shiny cudweed on turf plots (Example 3)
Text: as §1, §2, §6, §3, §4, §7

[9] = system: crabgrass (Digitaria sp.); assay: Early post-emergent control of crabgrass on turf plots (Example 4); conditions: 1 to 4 leaf stage, 45 DAT, X-77 0.25% V/V
Text: as §1, §2, §6
Test compositions containing sulfentrazone (Dismiss™ Turf Herbicide), dithiopyr (DIMENSION® Ultra 40WP Specialty Herbicide) and mixtures thereof, were diluted with water to provide the appropriate test rate concentrations. A non-ionic surfactant (X-77) was added to each test solution, 0.25% V/V. […]
Control of crabgrass (Digitaria sp.) was evaluated at 45 days after treatment for each test rate. […]

Structure (SMILES): Cc1nn(-c2cc(NS(C)(=O)=O)c(Cl)cc2Cl)c(=O)n1C(F)F [Sulfentrazone, N-[2,4-dichloro-5-[4-difluoromethyl-4,5-dihydro-3-methyl-5-oxo-1H-1,2,4-triazol-1-yl]phenyl]methanesulfonamide]
- % Control of Weeds Large Crabgrass 132 DAT ([1]; 0.25 lb/ac): 23%
- % Control of Weeds Large Crabgrass 132 DAT ([1]; .0125 lb/ac): 7%
- % Control of Weeds Parsley Piert 23 DAT ([2]; 0.25 lb/ac): 47%
- % Control of Weeds Parsley Piert 23 DAT ([2]; .0125 lb/ac): 40%
- % Control of Weeds Common Chickweed 23 DAT ([3]; 0.25 lb/ac): 45%
- % Control of Weeds Common Chickweed 23 DAT ([3]; .0125 lb/ac): 23%
- % Control of Weeds Shiny Cudweed 23 DAT ([4]; 0.25 lb/ac): 43%
- % Control of Weeds Shiny Cudweed 23 DAT ([4]; .0125 lb/ac): 31%
- % Broadleaf Weed Cover ([5]; 0.125 lb/ac): 15%
- % Control of Broadleaf Weeds ([5]; 0.125 lb/ac): 16%
- % Broadleaf Weed Cover ([5]; 0.25 lb/ac): 10%
- % Control of Broadleaf Weeds ([5]; 0.25 lb/ac): 44%
- % Control of Weeds Crabgrass 180 DAT Pre-emergent application ([6]; 0.0625 lb/ac): 0%
- % Control of Weeds Crabgrass 180 DAT Pre-emergent application ([6]; 0.125 lb/ac): 0%
- % Control of Weeds Crabgrass 180 DAT Pre-emergent application ([6]; 0.25 lb/ac): 0%
- % Control of Weeds Curly Dock 65 DAT Post-emergent application ([7]; 0.0625 lb/ac): 0%
- % Control of Weeds Curly Dock 65 DAT Post-emergent application ([7]; 0.125 lb/ac): 16%
- % Control of Weeds Curly Dock 65 DAT Post-emergent application ([7]; 0.25 lb/ac): 20%
- % Control of Weeds Shiny Cudweed 65 DAT Post-emergent application ([8]; 0.0625 lb/ac): 30%
- % Control of Weeds Shiny Cudweed 65 DAT Post-emergent application ([8]; 0.125 lb/ac): 50%
- % Control of Weeds Shiny Cudweed 65 DAT Post-emergent application ([8]; 0.25 lb/ac): 50%
- % Control of Crabgrass ([9]; 0.125 lb/ac): 30%
- % Control of Crabgrass ([9]; 0.25 lb/ac): 36%

Structure (SMILES): CSC(=O)c1c(C(F)F)nc(C(F)(F)F)c(C(=O)SC)c1CC(C)C [Dithiopyr, S,S′-dimethyl 2-(difluoromethyl)-4-(2-methylpropyl)-6-(trifluoromethyl)-3,5-pyridinedicarbothiolate]
- % Control of Weeds Large Crabgrass 132 DAT ([1]; 0.5 lb/ac): 88%
- % Control of Weeds Parsley Piert 23 DAT ([2]; 0.5 lb/ac): 38%
- % Control of Weeds Common Chickweed 23 DAT ([3]; 0.5 lb/ac): 53%
- % Control of Weeds Shiny Cudweed 23 DAT ([4]; 0.5 lb/ac): 29%
- % Broadleaf Weed Cover ([5]; 0.125 lb/ac): 21%
- % Control of Broadleaf Weeds ([5]; 0.125 lb/ac): 0%
- % Broadleaf Weed Cover ([5]; 0.25 lb/ac): 8%
- % Control of Broadleaf Weeds ([5]; 0.25 lb/ac): 55%
- % Control of Weeds Crabgrass 180 DAT Pre-emergent application ([6]; 0.0125 lb/ac): 59%
- % Control of Weeds Crabgrass 180 DAT Pre-emergent application ([6]; 0.25 lb/ac): 23%
- % Control of Weeds Curly Dock 65 DAT Post-emergent application ([7]; 0.0125 lb/ac): 36%
- % Control of Weeds Curly Dock 65 DAT Post-emergent application ([7]; 0.25 lb/ac): 60%
- % Control of Weeds Shiny Cudweed 65 DAT Post-emergent application ([8]; 0.0125 lb/ac): 53%
- % Control of Weeds Shiny Cudweed 65 DAT Post-emergent application ([8]; 0.25 lb/ac): 60%
- % Control of Crabgrass ([9]; 0.25 lb/ac): 50%
- % Control of Crabgrass ([9]; 0.5 lb/ac): 88%
